Measurements: patent US20090124678A1, “Combined Use of Metconazole and Epoxiconazole for Reducing or Preventing the Contamination of Cereals With Mycotoxins” (priority 2005, published 2009)

Key:
[1] = tested on: Fusarium sp.; experiment: Fusarium ear infection of winter wheat under field conditions, determined visually; assay type: in vivo, Fusarium sp. on winter wheat cultivar "Ritmo"; conditions: winter wheat "Ritmo" inoculated with Fusarium sp. at GS 25-29, sprayed at GS 63, assessed three weeks after application, relative to untreated control, metconazole 45 g/ha, epoxyconazole 75 g/ha
Protocol: (§1) At growth stage GS 25-29 (tillering), outdoor winter wheat of the cultivar “Ritmo” was inoculated with rye grains infected with Fusarium sp. The active compounds were applied at growth stage GS 63 (beginning of flowering). Both metconazole and epoxyconazole were used as finished formulations (metconazole: trade name “Caramba”; epoxyconazole: trade name “Opus”; metconazole as SL=[…]; epoxyconazole as SC=suspensible concentrate). These formulations were diluted with water to the desired concentration, and the plants were treated by spraying with these diluted preparations. The active compounds were applied jointly as a tank mix. For comparison, the individual fungicides were also only employed on their own. Three weeks after application, the infection of the ears with Fusarium fungi was determined visually. The wheat grains were harvested and the DON content of the grains was determined after extraction and analysis by HPLC/MS. For comparative evaluation, the Fusarium infection and the DON value found for untreated wheat were defined as 100%. […] The expected efficacies for active compound combinations were determined using Colby's formula (S. R. Colby, Calculating Synergistic and Antagonistic Responses of Herbicide Combinations, Weeds, 15, pages 20-22, 1967) and compared with the observed efficacies.

[2] = tested on: deoxynivalenol (DON); experiment: DON content of harvested wheat grains after field treatment (extraction, HPLC/MS); assay type: in vivo, Fusarium sp. on winter wheat cultivar "Ritmo"; conditions: relative to untreated wheat (33.7 mg/kg DON), sprayed at GS 63, metconazole 45 g/ha, epoxyconazole 75 g/ha
Protocol: as §1

| Structure (SMILES) | Effect on infection [%] [1] [%] | Reduction of DON content [%] [2] [%] |
| --- | --- | --- |
| Fc1ccc([C@]2(Cn3cncn3)O[C@H]2c2ccccc2Cl)cc1 (racemic) [epoxyconazole] | 5 | 0 |
| CC1(C)CCC(Cc2ccc(Cl)cc2)C1(O)Cn1cncn1 (stereo not shown) [metconazole] | 27 | 33 |
